Values of other authors as cited in patent US9265757B2, “Methods of administering antihistamines” (APTAPHARMA INC., priority 2011, dated 2016).

Details: second generation antihistamines; from time of administration to symptomatic relief

## COc1ccc(CCN2CCC(Nc3nc4ccccc4n3Cc3ccc(F)cc3)CC2)cc1 [astemizole]
  lag time before onset of action: several hours

## O=C(O)COCCN1CCN(C(c2ccccc2)c2ccc(Cl)cc2)CC1 (stereo not shown) [cetirizine]
  lag time before onset of action: several hours

## CCOC(=O)N1CCC(=C2c3ccc(Cl)cc3CCc3cccnc32)CC1 [loratadine]
  lag time before onset of action: several hours

## CC(C)(C)c1ccc(C(O)CCCN2CCC(C(O)(c3ccccc3)c3ccccc3)CC2)cc1 (stereo not shown) [terfenadine]
  lag time before onset of action: several hours
